Patent publication US8598193B2, “Polycyclic agents for the treatment of respiratory syncytial virus infections” (Biota Scientific Management Pty Ltd., priority 2003, dated 2013)
Converted amounts (≈) assume the structure as drawn.

Test system: RSV A2
Assay: RSV antiviral cytopathic effect (CPE) assay, MTT readout
Type: cell-based
Conditions: human respiratory syncytial virus, HEp-2, 120 h, read-out: Activity Range (RSV A2 antiviral EC50), compounds of Table 2
Procedure: Method Q: RSV Antiviral Assay Protocol
Compounds of the invention were tested for their antiviral activity against respiratory syncytial virus. Cytopathic effect (CPE) assays were performed essentially as described in the literature (see for example Watanabe et al, 1. Virological Methods, 1994, 48, 257). Serial dilutions of the test compounds were made in assay medium. HEp2 cells (1.0×10^4 cells/well) were infected with RSV at a low multiplicity of infection (e.g. RSV A2 at an moi of 0.01) and 100 μL added to cultures assessing antiviral activity and cells without virus added to those assessing compound cytotoxicity. Assays were incubated for approximately 5 days at 37° C. in a 5% CO2 atmosphere. The extent of CPE was determined via metabolism of the vital dye 3-(4,5-dimethylthiaxol-2-yl)-2,5-diphenyltetrazolium bromide (MTT). A 3 mg/ml stock of MTT was made in assay medium and 100 μL added to each well, taking the final MTT concentration to […]. After 2 hours incubation at 37° C., the media-MTT solution was removed and 200 μL of isopropanol was added to dissolve the vital dye crystals. Plates were shaken and the absorbance read at 540 nm. The compound concentrations that inhibited CPE by 50% (EC50) and developed cytotoxicity (CC50) were calculated using an Excel curve fitting program.

Row | Structure (SMILES) | EC50
1 | Cc1nnsc1C(=O)N1CCN2C(=O)c3ccccc3C21c1ccc(Cl)cc1 (stereo not drawn) [Compound 184] | < 0.1 µg/mL

Same assay, conditions: human respiratory syncytial virus, HEp-2, 120 h; RSV A2 in HEp2 cells, CPE assay, MTT, approx. 5 days; read-out: Activity Range (RSV A2 antiviral EC50), compounds of Table 2

Row | Structure (SMILES) | EC50
2 | O=C1c2ccccc2C2(c3ccc(Cl)cc3)N1CCN2C(=O)c1sccc1Cl (stereo not drawn) [Compound 328] | 0.1 to 0.25 µg/mL (≈ 0.233 to 0.582 µM)
3 | O=C1c2ccccc2C2(c3ccc(Cl)cc3)N1CCN2C(=O)c1nsc(Cl)c1Cl (stereo not drawn) [Compound 331] | 0.25 to 1 µg/mL (≈ 0.538 to 2.15 µM)
4 | O=C(CSc1ccccn1)N1CCN2C(=O)c3ccccc3C12c1ccc(Cl)cc1 (stereo not drawn) [Compound 299] | 0.25 to 1 µg/mL (≈ 0.573 to 2.29 µM)
5 | O=C(c1ccc(F)cc1)N1CCN2C(=O)c3ccccc3C12c1ccc(Br)cc1 (stereo not drawn) [Compound 234] | < 0.1 µg/mL
6 | O=C(c1csc(-c2cccs2)n1)N1CCN2C(=O)c3ccccc3C12c1ccc(Cl)cc1 (stereo not drawn) [Compound 324] | 0.1 to 0.25 µg/mL (≈ 0.209 to 0.523 µM)
7 | O=C(CSc1ncccn1)N1CCN2C(=O)c3ccccc3C12c1ccc(Cl)cc1 (stereo not drawn) [Compound 303] | 0.25 to 1 µg/mL (≈ 0.572 to 2.29 µM)
8 | CCOc1ccsc1C(=O)N1CCN2C(=O)c3ccccc3C21c1ccc(Cl)cc1 (stereo not drawn) [Compound 329] | 0.1 to 0.25 µg/mL (≈ 0.228 to 0.57 µM)
9 | O=C(CCCc1ccccc1)N1CCN2C(=O)c3ccccc3C12c1ccc(Cl)cc1 (stereo not drawn) [Compound 227] | 0.25 to 1 µg/mL (≈ 0.58 to 2.32 µM)
10 | COc1ccc(-c2ocnc2C(=O)N2CCN3C(=O)c4ccccc4C32c2ccc(Cl)cc2)cc1 (stereo not drawn) [Compound 332] | < 0.1 µg/mL
11 | O=C(CCCc1c[nH]c2ccccc12)N1CCN2C(=O)c3ccccc3C12c1ccc(Cl)cc1 (stereo not drawn) [Compound 228] | 0.25 to 1 µg/mL (≈ 0.532 to 2.13 µM)
12 | O=C(c1ccc(F)cc1)N1CCN2C(=O)c3ccccc3C12c1ccc(OCCCl)cc1 (stereo not drawn) [Compound 265] | 0.1 to 0.25 µg/mL (≈ 0.222 to 0.554 µM)
13 | O=C(Cc1cccc(Br)c1)N1CCN2C(=O)c3ccccc3C12c1ccc(Cl)cc1 (stereo not drawn) [Compound 242] | 0.1 to 0.25 µg/mL (≈ 0.208 to 0.519 µM)
14 | O=C(c1ccc(F)nc1)N1CCN2C(=O)c3ccccc3C12c1ccc(F)cc1 (stereo not drawn) [Compound 314] | 0.1 to 0.25 µg/mL (≈ 0.256 to 0.639 µM)
15 | O=C(c1ccc(F)cc1)N1CCN2C(=O)c3ccccc3C12c1ccc(C(F)(F)F)cc1 (stereo not drawn) [Compound 307] | 0.1 to 0.25 µg/mL (≈ 0.227 to 0.568 µM)
16 | O=C(Oc1ccc(C23c4ccccc4C(=O)N2CCN3C(=O)c2ccc(F)cc2)cc1)c1ccc(F)cc1 (stereo not drawn) [Compound 237] | 0.25 to 1 µg/mL (≈ 0.49 to 1.96 µM)
17 | O=C(c1cccnc1)N1CCN2C(=O)c3ccccc3C12c1ccc(Cl)cc1 (stereo not drawn) [Compound 230] | < 0.1 µg/mL
18 | O=C(c1ccc(Cl)nc1)N1CCN2C(=O)c3ccccc3C12c1ccc(Cl)cc1 (stereo not drawn) [Compound 312] | 0.25 to 1 µg/mL (≈ 0.589 to 2.36 µM)
19 | COc1ccc(CC(=O)N2CCN3C(=O)c4ccccc4C23c2ccc(F)cc2)cc1 (stereo not drawn) [Compound 232] | 0.25 to 1 µg/mL (≈ 0.6 to 2.4 µM)

Row | Structure (SMILES) | EC50
20 | CCC(=O)N1CCN2C(=O)c3ccccc3C12c1ccc(CC)cc1 (stereo not drawn) [Compound 192] | 0.25 to 1 µg/mL (≈ 0.748 to 2.99 µM)
21 | CCC(=O)N1CCN2C(=O)c3ccccc3C12c1ccc(Br)cc1 (stereo not drawn) [Compound 236] | 0.1 to 0.25 µg/mL (≈ 0.26 to 0.649 µM)
22 | O=C1c2ccccc2C2(c3ccc(Cl)cc3)N1CCN2C(=O)C1Cc2ccccc21 (stereo not drawn) [Compound 218] | 0.25 to 1 µg/mL (≈ 0.603 to 2.41 µM)
23 | Cc1ccc(C23c4ccccc4C(=O)N2CCN3C(=O)NCc2ccccc2)cc1 (stereo not drawn) [Compound 82] | 0.25 to 1 µg/mL (≈ 0.629 to 2.52 µM)
24 | Cc1noc(C)c1COc1ccc(C23c4ccccc4C(=O)N2CCN3C(=O)c2ccc(F)cc2)cc1 (stereo not drawn) [Compound 263] | 0.1 to 0.25 µg/mL (≈ 0.201 to 0.502 µM)
25 | Cc1nonc1C(=O)N1CCN2C(=O)c3ccccc3C21c1ccc(Cl)cc1 (stereo not drawn) [Compound 335] | < 0.1 µg/mL
26 | CCC(=O)N1CCN2C(=O)c3ccccc3C12c1ccc(C)cc1 (stereo not drawn) [Compound 117] | 0.25 to 1 µg/mL (≈ 0.78 to 3.12 µM)
27 | COc1ccc(NC(=O)N2CCN3C(=O)c4ccccc4C23c2ccc(C)cc2)cc1 (stereo not drawn) [Compound 86] | 0.1 to 0.25 µg/mL (≈ 0.242 to 0.605 µM)
28 | O=C(c1ccc(F)cc1)N1CCN2C(=O)c3ccccc3C12c1ccc(OCCCCl)cc1 (stereo not drawn) [Compound 261] | 0.1 to 0.25 µg/mL (≈ 0.215 to 0.538 µM)
29 | CCCc1ccc(C23c4ccccc4C(=O)N2CCN3C(=O)CC)cc1 (stereo not drawn) [Compound 199] | 0.25 to 1 µg/mL (≈ 0.717 to 2.87 µM)
30 | O=C(c1csc(-c2cccnc2)n1)N1CCN2C(=O)c3ccccc3C12c1ccc(Cl)cc1 (stereo not drawn) [Compound 205] | < 0.1 µg/mL
31 | CC(C)c1ccc(C23c4ccccc4C(=O)N2CCN3C(=O)c2ccc(F)cc2)cc1 (stereo not drawn) [Compound 203] | 0.25 to 1 µg/mL (≈ 0.603 to 2.41 µM)
32 | COCCOc1ccc(C23c4ccccc4C(=O)N2CCN3C(=O)c2ccc(F)cc2)cc1 (stereo not drawn) [Compound 238] | 0.1 to 0.25 µg/mL (≈ 0.224 to 0.56 µM)
33 | Nc1ccc(C(=O)N2CCN3C(=O)c4ccccc4C23c2ccc(Cl)cc2)cn1 (stereo not drawn) [Compound 319] | 0.25 to 1 µg/mL (≈ 0.618 to 2.47 µM)
34 | CC(C)CC(=O)N1CCN2C(=O)c3ccccc3C12c1ccc(Cl)cc1 (stereo not drawn) [Compound 214] | 0.25 to 1 µg/mL (≈ 0.678 to 2.71 µM)
35 | O=C(c1ccc(F)nc1)N1CCN2C(=O)c3ccccc3C12c1ccc(OCC2CC2)cc1 (stereo not drawn) [Compound 316] | < 0.1 µg/mL
36 | N#CCCCOc1ccc(C23c4ccccc4C(=O)N2CCN3C(=O)c2ccc(F)cc2)cc1 (stereo not drawn) [Compound 260] | 0.1 to 0.25 µg/mL (≈ 0.22 to 0.549 µM)
